Read-outs that look alike come from different tables or passages of the source.
Experiments:
CRBN-DDB1 = CRBN-DDB1 (Homo sapiens, UniProt Q96SW2); test: HTRF binding of compounds to CRBN
Experimental: Compound activity was monitored in a Homogenous Time-Resolved Fluorescence (HTRF) assay using 1-[5-({2-[2-(2-{[2-(2,6-dioxopiperidin-3-yl)-1,3-dioxo-2,3-dihydro-1H-isoindol-4-yl]oxy}acetamido)ethoxy]ethyl}carbamoyl)pentyl]-3,3-dimethyl-2-[(1E,3E)-5-[(2E)-1,3,3-trimethyl-5-sulfo-2,3-dihydro-1H-indol-2-ylidene]penta-1,3-dien-1-yl]-3H-indol-1-ium-5-sulfonate as a fluorescent probe. […] Compounds were stored in dry, ambient temperatures at 10 mM. A 10-point, 1:3 dilution series was prepared from 10 mM stock concentrations in Echo-compatible LDV plates. 10 nL of each compound dilution series was dispensed into assays wells using an Echo 650 (Labcyte inc. USA). […] The assay was then allowed to incubate for 30 min at ambient temperature after transferring compound. […] Analysis and IC50 values were derived using KNIME analytics (KNIME Zurich) transformation and fitting within Collaborative Drug Discovery (Collaborative Drug Discovery USA). Ki was derived from the geometric mean of the IC50 values using the Cheng-Prustoff transformation.

GSPT1 = GSPT1 (Homo sapiens, UniProt P15170+Q96SW2); test: Immunofluorescence assay for GSPT1 degradation in CAL-51 cells (Example 10); format: cell-based; parameters: host or cells: CAL-51
GSPT1, sequence (P15170 whole entry): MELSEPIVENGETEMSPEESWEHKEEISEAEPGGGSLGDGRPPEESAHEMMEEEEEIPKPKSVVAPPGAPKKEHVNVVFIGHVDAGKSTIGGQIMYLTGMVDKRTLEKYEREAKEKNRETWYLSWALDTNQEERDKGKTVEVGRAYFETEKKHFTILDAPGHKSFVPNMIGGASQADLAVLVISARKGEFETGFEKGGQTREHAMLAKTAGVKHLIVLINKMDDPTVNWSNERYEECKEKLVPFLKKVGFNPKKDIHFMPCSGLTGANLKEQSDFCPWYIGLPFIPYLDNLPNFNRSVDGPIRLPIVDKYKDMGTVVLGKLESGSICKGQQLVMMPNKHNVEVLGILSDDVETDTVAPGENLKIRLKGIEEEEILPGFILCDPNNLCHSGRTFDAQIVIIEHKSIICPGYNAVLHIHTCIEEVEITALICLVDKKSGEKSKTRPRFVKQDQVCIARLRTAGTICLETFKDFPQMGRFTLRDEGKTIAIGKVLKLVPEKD
GSPT1, sequence (Q96SW2 whole entry): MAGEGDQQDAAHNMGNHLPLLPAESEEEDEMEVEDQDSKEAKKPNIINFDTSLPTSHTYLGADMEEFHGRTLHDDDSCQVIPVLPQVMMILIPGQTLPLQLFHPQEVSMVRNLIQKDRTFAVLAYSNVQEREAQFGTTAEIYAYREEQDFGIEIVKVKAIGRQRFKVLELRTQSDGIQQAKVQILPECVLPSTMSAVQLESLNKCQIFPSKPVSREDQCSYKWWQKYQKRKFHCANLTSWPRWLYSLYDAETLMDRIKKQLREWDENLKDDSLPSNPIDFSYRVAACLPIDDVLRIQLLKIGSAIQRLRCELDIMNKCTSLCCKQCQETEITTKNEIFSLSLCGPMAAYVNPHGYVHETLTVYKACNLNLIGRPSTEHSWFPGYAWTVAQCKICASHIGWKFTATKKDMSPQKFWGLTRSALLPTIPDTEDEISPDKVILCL
GSPT1, sequence (Q16531 2-1140 partner limits assumed): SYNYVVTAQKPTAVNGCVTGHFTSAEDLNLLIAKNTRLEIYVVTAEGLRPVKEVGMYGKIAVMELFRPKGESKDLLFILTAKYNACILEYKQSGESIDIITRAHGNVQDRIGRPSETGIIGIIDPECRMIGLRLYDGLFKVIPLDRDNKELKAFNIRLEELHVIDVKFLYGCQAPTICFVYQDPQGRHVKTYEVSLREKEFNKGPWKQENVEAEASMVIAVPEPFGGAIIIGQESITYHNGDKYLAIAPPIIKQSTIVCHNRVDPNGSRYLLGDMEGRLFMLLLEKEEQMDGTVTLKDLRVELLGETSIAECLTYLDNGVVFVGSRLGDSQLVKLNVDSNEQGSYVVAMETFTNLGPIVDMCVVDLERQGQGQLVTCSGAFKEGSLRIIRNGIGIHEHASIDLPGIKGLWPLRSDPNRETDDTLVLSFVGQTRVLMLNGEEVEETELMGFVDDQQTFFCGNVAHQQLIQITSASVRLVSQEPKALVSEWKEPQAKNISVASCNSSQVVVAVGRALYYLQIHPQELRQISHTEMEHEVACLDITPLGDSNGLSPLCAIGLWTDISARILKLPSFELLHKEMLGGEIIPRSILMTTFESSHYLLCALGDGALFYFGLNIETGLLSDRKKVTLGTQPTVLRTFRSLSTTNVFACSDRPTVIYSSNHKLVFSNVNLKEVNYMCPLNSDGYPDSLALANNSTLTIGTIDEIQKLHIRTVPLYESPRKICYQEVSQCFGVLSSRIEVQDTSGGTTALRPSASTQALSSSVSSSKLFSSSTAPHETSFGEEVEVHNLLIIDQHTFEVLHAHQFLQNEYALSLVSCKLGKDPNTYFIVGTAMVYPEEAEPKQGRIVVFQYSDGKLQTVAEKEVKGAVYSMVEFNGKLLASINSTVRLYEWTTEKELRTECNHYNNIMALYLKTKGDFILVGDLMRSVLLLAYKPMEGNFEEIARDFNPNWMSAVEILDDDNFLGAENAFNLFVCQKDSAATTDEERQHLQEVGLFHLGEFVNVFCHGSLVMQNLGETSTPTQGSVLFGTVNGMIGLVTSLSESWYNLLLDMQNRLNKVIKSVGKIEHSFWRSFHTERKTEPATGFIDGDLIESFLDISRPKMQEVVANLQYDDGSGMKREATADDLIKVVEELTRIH
Experimental: The representative compounds were tested in an immunofluorescence assay for their activity to degrade GSPT1. […] Compounds were stored at 10 mM DMSO stocks. […] Cells were subsequently rinsed with PBS and fixed in 10% Formalin solution (50 μl, Sigma HT5011)) for 20 mins at room temperature. […] Following three further PBS washes, 50 μL blocking buffer (1% BSA, Sigma A4503, in PBS) was added for 45 min for signal-to noise reduction. Primary antibody (human GSPT1, Sigma HPA052488) was diluted in blocking buffer (dil.1/300, 35 μL/well) and incubated with the cells overnight at 4° C. […] After three final PBS washes, samples were conserved in 100 μL PBS in the dark, until measurement. Image acquisition was performed on the Operetta High-Content Imager (Perkin-Elmer). […] For the determination of GSPT1 DC50 values, a custom algorithm implemented in the PerkinElmer image analysis software Harmony-Acapella® was developed. After user-defined setting of adjustment parameters, the analysis was run identically without human intervention for all image fields.
DAPI staining of the nuclei was used to determine the location of cells using standard nuclei detection modules. Segmentation artifacts were removed by threshold-based filters for area, roundness and intensity. The outline of the cells was determined analogously from the sum of the normalized, smoothed DAPI and Actin channel, starting from each nucleus. […] GSPT1 degradation (DC50) was calculated after normalization to controls and data import in CDD vault Database, using non-linear regression.

[1] = read-out: HTRF Class (Cereblon binding, HTRF IC50)
[2] = 6 h, read-out: IF Class (GSPT1 degradation, DC50)

CRBN-DDB1, sequence (Q96SW2 whole entry): as the sequence (Q96SW2 whole entry) above
CRBN-DDB1, sequence (Q16531 whole entry partner): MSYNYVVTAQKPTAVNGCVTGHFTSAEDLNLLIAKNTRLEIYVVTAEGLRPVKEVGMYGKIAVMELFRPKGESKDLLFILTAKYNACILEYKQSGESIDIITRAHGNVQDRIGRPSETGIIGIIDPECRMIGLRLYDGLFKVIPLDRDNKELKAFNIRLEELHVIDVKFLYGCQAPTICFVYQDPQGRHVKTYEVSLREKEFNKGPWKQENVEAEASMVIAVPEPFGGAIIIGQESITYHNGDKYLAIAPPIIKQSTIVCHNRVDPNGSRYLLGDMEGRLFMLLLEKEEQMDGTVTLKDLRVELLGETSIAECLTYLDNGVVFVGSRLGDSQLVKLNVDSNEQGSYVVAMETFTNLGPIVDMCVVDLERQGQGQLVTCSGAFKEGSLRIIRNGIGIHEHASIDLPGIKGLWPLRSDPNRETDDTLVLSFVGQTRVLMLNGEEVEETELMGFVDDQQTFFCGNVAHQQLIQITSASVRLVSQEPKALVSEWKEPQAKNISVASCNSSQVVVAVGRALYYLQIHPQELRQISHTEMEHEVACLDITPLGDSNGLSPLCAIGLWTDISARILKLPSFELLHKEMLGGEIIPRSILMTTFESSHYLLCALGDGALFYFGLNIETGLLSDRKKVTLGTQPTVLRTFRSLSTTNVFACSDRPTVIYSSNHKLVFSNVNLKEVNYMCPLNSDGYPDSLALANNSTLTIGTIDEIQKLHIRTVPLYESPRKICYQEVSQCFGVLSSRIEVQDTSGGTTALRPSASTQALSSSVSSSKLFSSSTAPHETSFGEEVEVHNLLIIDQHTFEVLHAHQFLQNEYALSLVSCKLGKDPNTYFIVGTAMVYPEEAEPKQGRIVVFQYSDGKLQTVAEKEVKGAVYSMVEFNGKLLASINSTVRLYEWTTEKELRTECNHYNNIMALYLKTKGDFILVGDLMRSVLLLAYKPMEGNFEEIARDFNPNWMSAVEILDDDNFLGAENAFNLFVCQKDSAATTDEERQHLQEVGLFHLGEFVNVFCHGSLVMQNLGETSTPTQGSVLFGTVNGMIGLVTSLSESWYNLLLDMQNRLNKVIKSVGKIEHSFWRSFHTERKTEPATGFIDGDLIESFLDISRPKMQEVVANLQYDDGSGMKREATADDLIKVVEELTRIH

Compound	IC50 (CRBN-DDB1; [1])	DC50 (GSPT1; [2])	IC50 (CRBN-DDB1)	DC50 (GSPT1; read-out: IF Class (GSPT1 degradation, DC50), 6 h)
O=C1CCC(N2Cc3ccc(COC(=O)NC4(c5ccccc5)CC4)cc3C2=O)C(=O)N1 (centres unmarked) [Compound 171, (2-(2,6-dioxopiperidin-3-yl)-3-oxoisoindolin-5-yl)methyl (1-phenylcyclopropyl)carbamate]	100 to 1000 nM	> 300 nM		
CC(C)(C)N1CC(NC(=O)OCc2ccc3c(c2)C(=O)N(C2CCC(=O)NC2=O)C3)C1 (centres unmarked) [Compound 172, (2-(2,6-dioxopiperidin-3-yl)-3-oxoisoindolin-5-yl)methyl (1-(tert-butyl)azetidin-3-yl)carbamate]	100 to 1000 nM	> 300 nM		
CC(C)(C)OC(=O)NC12CC(NC(=O)OCc3ccc4c(c3)C(=O)N(C3CCC(=O)NC3=O)C4)(C1)C2 (centres unmarked) [Compound 196, tert-butyl((2-(2,6-dioxopiperidin-3-yl)-3-oxoisoindolin-5-yl)methyl)bicyclo[1.1.1]pentane-1,3-diyldicarbamate]	< 100 nM	> 300 nM		
O=C1CCC(N2Cc3ccc(COC(=O)N[C@H]4C[C@H](c5ccccc5)C4)cc3C2=O)C(=O)N1 (some centres unmarked) [Compound 159, (2-(2,6-dioxopiperidin-3-yl)-3-oxoisoindolin-5-yl)methyl((1r,3r)-3-phenylcyclobutyl)carbamate]	100 to 1000 nM	30 to 300 nM		
CC(C)(C)OC(=O)C12CC(NC(=O)OCc3ccc4c(c3)C(=O)N(C3CCC(=O)NC3=O)C4)(C1)C2 (centres unmarked) [Compound 224, tert-butyl 3-((((2-(2,6-dioxopiperidin-3-yl)-3-oxoisoindolin-5-yl)methoxy)carbonyl)amino)bicyclo[1.1.1]pentane-1-carboxylate]	100 to 1000 nM	30 to 300 nM		
O=C1CCC(N2Cc3ccc(COC(=O)Nc4cc(F)cc5c4OCC5)cc3C2=O)C(=O)N1 (centres unmarked) [Compound 187, (2-(2,6-dioxopiperidin-3-yl)-3-oxoisoindolin-5-yl)methyl(5-fluoro-2,3-dihydrobenzofuran-7-yl) carbamate]	< 100 nM	> 300 nM		
O=C1CCC(N2Cc3ccc(COC(=O)Nc4cc(OC(F)F)c(F)cc4F)cc3C2=O)C(=O)N1 (centres unmarked) [Compound 218, (2-(2,6-dioxopiperidin-3-yl)-3-oxoisoindolin-5-yl)methyl(5-(difluoromethoxy)-2,4-difluorophenyl) carbamate]	< 100 nM	> 300 nM		
Cc1cc(C)nc(NC(=O)OCc2ccc3c(c2)C(=O)N(C2CCC(=O)NC2=O)C3)c1 (centres unmarked) [Compound 161, (2-(2,6-dioxopiperidin-3-yl)-3-oxoisoindolin-5-yl)methyl (4,6-dimethylpyridin-2-yl)carbamate]	100 to 1000 nM	> 300 nM		
CC1(c2ccc(NC(=O)OCc3ccc4c(c3)C(=O)N(C3CCC(=O)NC3=O)C4)nc2)CC1 (centres unmarked) [Compound 188]			100 to 1000 nM	< 30 nM
O=C1CCC(N2Cc3ccc(COC(=O)Nc4ccc(C5CCC5)cn4)cc3C2=O)C(=O)N1 (centres unmarked) [Compound 181, (2-(2,6-dioxopiperidin-3-yl)-3-oxoisoindolin-5-yl)methyl (5-cyclobutylpyridin-2-yl)carbamate]	100 to 1000 nM	30 to 300 nM		
O=C1CCC(N2Cc3ccc(COC(=O)Nc4cc(F)c(OC(F)F)c(F)c4)cc3C2=O)C(=O)N1 (centres unmarked) [Compound 206, (2-(2,6-dioxopiperidin-3-yl)-3-oxoisoindolin-5-yl) methyl (4-(difluoromethoxy)-3,5-difluorophenyl)carbamate]	100 to 1000 nM			
C[C@@H]1CCCN1c1cnc(NC(=O)OCc2ccc3c(c2)C(=O)N(C2CCC(=O)NC2=O)C3)c(F)c1 (stereo partly drawn) [Compound 232, (2-(2,6-dioxopiperidin-3-yl)-3-oxoisoindolin-5-yl)methyl (3-fluoro-5-((R)-2-methylpyrrolidin-1-yl)pyridin-2-yl)carbamate]	< 100 nM			
COc1cc(NC(=O)OCc2ccc3c(c2)C(=O)N(C2CCC(=O)NC2=O)C3)c(F)cc1C (centres unmarked) [Compound 229, (2-(2,6-dioxopiperidin-3-yl)-3-oxoisoindolin-5-yl)methyl (2-fluoro-5-methoxy-4-methylphenyl)carbamate]	< 100 nM			
CC(C)(C)c1cccc(NC(=O)OCc2ccc3c(c2)C(=O)N(C2CCC(=O)NC2=O)C3)n1 (centres unmarked) [Compound 170, (2-(2,6-dioxopiperidin-3-yl)-3-oxoisoindolin-5-yl)methyl (6-(tert-butyl)pyridin-2-yl)carbamate]	100 to 1000 nM			
O=C1CCC(N2Cc3ccc(COC(=O)Nc4cccc5c4OCC5)cc3C2=O)C(=O)N1 (centres unmarked) [Compound 173]			100 to 1000 nM	
O=C1CCC(N2Cc3ccc(COC(=O)NC45CC(c6ccccc6F)(C4)C5)cc3C2=O)C(=O)N1 (centres unmarked) [Compound 174, (2-(2,6-dioxopiperidin-3-yl)-3-oxoisoindolin-5-yl)methyl (3-(2-fluorophenyl)bicyclo[1.1.1]pentan-1-yl) carbamate]	< 100 nM			
Cc1cc(F)c(NC(=O)OCc2ccc3c(c2)C(=O)N(C2CCC(=O)NC2=O)C3)cc1OC(F)F (centres unmarked) [Compound 201, (2-(2,6-dioxopiperidin-3-yl)-3-oxoisoindolin-5-yl) methyl (5-(difluoromethoxy)-2-fluoro-4-methylphenyl)carbamate]	100 to 1000 nM			
O=C1CCC(N2Cc3ccc(COC(=O)Nc4cccc(OC(F)(F)F)c4F)cc3C2=O)C(=O)N1 (centres unmarked) [Compound 169]			100 to 1000 nM	
O=C1CCC(N2Cc3ccc(COC(=O)NC45CC(N6CCOCC6)(C4)C5)cc3C2=O)C(=O)N1 (centres unmarked) [Compound 215, (2-(2,6-dioxopiperidin-3-yl)-3-oxoisoindolin-5-yl)methyl (3-morpholinobicyclo[1.1.1]pentan-1-yl)carbamate]	100 to 1000 nM			
CCCOc1cc(NC(=O)OCc2ccc3c(c2)C(=O)N(C2CCC(=O)NC2=O)C3)c(F)cc1C (centres unmarked) [Compound 231, (2-(2,6-dioxopiperidin-3-yl)-3-oxoisoindolin-5-yl)methyl (2-fluoro-4-methyl-5-propoxyphenyl)carbamate]	< 100 nM			

Second part, led by results:

IC50 (CRBN-DDB1; [1])	DC50 (GSPT1; [2])	Compound	IC50 (CRBN-DDB1)	DC50 (GSPT1; read-out: IF Class (GSPT1 degradation, DC50), 6 h)
100 to 1000 nM	> 300 nM	Cc1cccc(NC(=O)OCc2ccc3c(c2)C(=O)N(C2CCC(=O)NC2=O)C3)c1 (centres unmarked) [Compound 160, (2-(2,6-dioxopiperidin-3-yl)-3-oxoisoindolin-5-yl)methyl m-tolylcarbamate]		
100 to 1000 nM	< 30 nM	Cc1cc(NC(=O)OCc2ccc3c(c2)C(=O)N(C2CCC(=O)NC2=O)C3)ccc1Cl (centres unmarked) [Compound 165, (2-(2,6-dioxopiperidin-3-yl)-3-oxoisoindolin-5-yl)methyl (4-chloro-3-methylphenyl)carbamate]		
< 100 nM	> 300 nM	CCc1ccc(F)c(NC(=O)OCc2ccc3c(c2)C(=O)N(C2CCC(=O)NC2=O)C3)c1 (centres unmarked) [Compound 210, (2-(2,6-dioxopiperidin-3-yl)-3-oxoisoindolin-5-yl)methyl (5-ethyl-2-fluorophenyl)carbamate]		
100 to 1000 nM	> 300 nM	O=C1CCC(N2Cc3ccc(COC(=O)Nc4c(F)ccc(Cl)c4F)cc3C2=O)C(=O)N1 (centres unmarked) [Compound 178, (2-(2,6-dioxopiperidin-3-yl)-3-oxoisoindolin-5-yl)methyl (3-chloro-2,6-difluorophenyl)carbamate]		
100 to 1000 nM	> 300 nM	Cc1ccc(NC(=O)OCc2ccc3c(c2)C(=O)N(C2CCC(=O)NC2=O)C3)cc1 (centres unmarked) [Compound 162, (2-(2,6-dioxopiperidin-3-yl)-3-oxoisoindolin-5-yl)methyl p-tolylcarbamate]		
100 to 1000 nM		CC(C)c1cccc(NC(=O)OCc2ccc3c(c2)C(=O)N(C2CCC(=O)NC2=O)C3)c1 (centres unmarked) [Compound 217, (2-(2,6-dioxopiperidin-3-yl)-3-oxoisoindolin-5-yl)methyl (3-isopropylphenyl)carbamate]		
100 to 1000 nM		O=C1CCC(N2Cc3ccc(COC(=O)Nc4cccc(Cl)c4)cc3C2=O)C(=O)N1 (centres unmarked) [Compound 239, (2-(2,6-dioxopiperidin-3-yl)-3-oxoisoindolin-5-yl)methyl (3-chlorophenyl)carbamate]		
< 100 nM		Cc1cc(F)c(NC(=O)OCc2ccc3c(c2)C(=O)N(C2CCC(=O)NC2=O)C3)cc1Br (centres unmarked) [Compound 197, (2-(2,6-dioxopiperidin-3-yl)-3-oxoisoindolin-5-yl)methyl (5-bromo-2-fluoro-4-methylphenyl)carbamate]		
100 to 1000 nM		CC(C)(O)c1ccc(NC(=O)OCc2ccc3c(c2)C(=O)N(C2CCC(=O)NC2=O)C3)cc1 (centres unmarked) [Compound 195, (2-(2,6-dioxopiperidin-3-yl)-3-oxoisoindolin-5-yl)methyl (4-(2-hydroxypropan-2-yl)phenyl)carbamate]		

From patent publication US20230348418A1, “ISOINDOLINONE COMPOUNDS” (Monte Rosa Therapeutics, Inc., priority 2021, published 2023)
